The values below come from patent publication US4272541A, “7,8 and 7-8 Substituted 4,5α-epoxymorphinan-6-one compounds, and methods of treating pain and drug dependence with them” (Miles Laboratories, Inc., priority 1979, dated 1981).

For data set [1] the following is noted: Telford et al. 1961; Yeh et al. 1976; cited from earlier work.
Data set [2] has as its system Anti-Peristaltic Effects Of Morphine. The experiment in a line: Charcoal meal test, antagonist test (ability to antagonize the anti-peristaltic effects of morphine). Type of data set: in vivo, mice (albino females, CFW strain). Particulars: for Percent Reversal (S.E.) Of Anti-Peristaltic Effects Of Morphine: morphine 8 mg/kg, naloxone 10 mg/kg = 100%; for antagonist properties: in words, charcoal meal tests. The method, then: (§1) The agonist and antagonist effects of TR-5088, reference compound TR-5128 and prior art compound 17-cyclopropylmethyl-4,5α-epoxy-3-hydroxymorphinan-6-one (TR-5118) were determined in mice by a modified procedure of Rodriguez and Villarreal (report on the 36th Annual Scientific Meeting Committee on the Problems of Drug Dependance, Mar. 10-14, 1974, Mexico City, D.F.).
(§2) Subjects and Procedure for Measuring Gastrointestinal Peristaltic Activity. The mice used were albino females of the CFW strain, weighing between 20 and 25 grams; ten animals per dose were used for each compound tested in each experiment except 20 animals were used in the tests of Compound 5088. Gastrointestinal peristaltic activity was measured using a modification of the charcoal meal method described by Macht and Baba-Gose (1931). Mice were deprived of food 18 hours before the administration of the charcoal meal. […] This meal consisted of an aqueous suspension of 5% powdered tragacanth and 5% animal charcoal and was freshly made for each experiment. The charcoal meal was administered by gastric intubation, 0.25 ml per mouse. The animals were sacrificed by cervical dislocation. After the sacrifice, the whole gastrointestinal tract was rapidly removed and freed of epiploon. Then the entire length of intestine was hung upon a small hook at the level of the pylorus. In order to standardize the tension of the intestine, a 5 g weight was hung at the level of the ileocecal valve. Gastrointestinal peristaltic activity was then determined by measuring the distance the charcoal traveled from the pylorus.
(§3) Drugs. Morphine hydrochloride, naloxone hydrochloride or test compounds were each dissolved in distilled water with their concentrations adjusted so that the volume of injection was 10 ml/kg. Doses are expressed in terms of the salts.
Determination of Ability of Test Compounds to Antagonize the Anti-Peristaltic Effects of Morphine (Antagonist test).
Morphine (8 mg/kg) was given s.c. at time 0, charcoal meal was given p.o. at time 15 min, naloxone or test compound was given s.c. at 30 min, and the animals were sacrificed at time 45 min. Naloxone is the standard of reference and its maximum effect (at 10 mg/kg) to antagonize the antiperistaltic effects of morphine is assigned the value of 100%; test compounds are expressed as % of maximum naloxone antagonism.

Another data set deals with morphine effect. The experiment in a line: Narcotic antagonist activity, modified rat tail flick test. The class given is in vivo, rats (male albino Wistar). The settings on record: Rattus norvegicus, ip; rats, test drug i.p. 10 minutes before ED80 dose of morphine s.c.; Table I; read-out: AD50 (the source's name). On the procedure:
(B) Narcotic antagonist activity in rats (modified rat tail flick test).
TEST B. EVALUATION OF NARCOTIC ANTAGONIST ACTIVITY
The narcotic antagonist effects of test compounds were determined by a modification of the rat tail flick procedure of Harris and Pierson (J. Pharmacol. Exp. Ther. 143,141 [1964]).
Male albino Wistar rats (100-120 g) were used for this study. A rat's tail is so placed so as to cover a photocell. Heat is applied by a lamp in a reflector with a timer being connected to the lamp and photocell so that the timer goes on when the light is turned on and is turned off when the photocell is uncovered. A rheostat, incorporated into a heating lamp is used to adjust the intensity of the light falling on the tail of the rat such that the rat's control reaction time is from two to four seconds. Animals with a control reaction time outside this range are rejected. The rheostat adjustment is made only if a significant proportion (more than 2 out of every 10 rats) of the reaction times are outside the range of two to four seconds. Groups of five rats were used each time, and two control times were determined at 60 and 30 minutes prior to subcutaneous injection of the drug.
Thirty minutes after the last control run the test drug was given intraperitoneally. This was followed ten minutes later by an ED80 dose of morphine subcutaneously. The animals were retested at 20 minutes after the morphine injection. Control animals were given vehicle and morphine only. The data were calculated as follows: [formula]
The data were plotted on log-probit paper and AD50 values, i.e., the dose required to inhibit the morphine effect by 50% within 95% confidence limits, were determined by the method of Litchfield and Wilcoxon.

The test system of a further data set is writhing. The experiment in a line: Acetic acid mouse writhing test (analgesic effects). The settings on record: for ED50: Mus musculus, sc, 0.25 h, mice, subcutaneous, acetic acid i.p. 15 minutes post drug, Table I, read-out: ED50. Type of data set: in vivo, mice (male CD-1). On the procedure: (A) Analgesic effects upon mice (acetic acid writhing test).
TEST A. ACETIC ACID MOUSE WRITHING TEST
The analgesic effects of test compounds were determined in mice by use of the acetic acid writhing test described by B. J. R. Whittle, Brit. J. Pharmacol., 22:246 (1964). In this test at least three groups of five male CD-1 mice (18-22 g) each were given subcutaneous doses of the test drug dissolved in either distilled water or distilled water acidified with HCl depending on the solubility of the compound. In all cases, 0.4 milliliter of a 0.5% V/V acetic acid in distilled water solution was administered intraperitoneally 15 minutes post drug. The number of writhes in a 20 min. interval beginning 5 minutes after the acetic acid injection were determined and compared with the number of writhes in control groups which had received only acetic acid.
Percent inhibition of writhing was calculated as: [formula]
The ED50 dose, i.e., the dose required to reduce the number of writhes by 50%, was determined graphically from a plot of % inhibition as a probit versus log dose. Confidence limits of 95% were calculated on the basis of those results falling in the range 16-84% inhibition. See Litchfield, J. T. and Wilcoxon, F., J. Pharmacol. Exp. Ther., 96, 99-113, (1949).
On the technique in general: In writhing tests, fewer writhes than in controls are read as antinociception.

A further data set deals with Peristalsis. As to the kind of experiment: Charcoal meal test, agonist test (ability of test compound to directly inhibit peristalsis). Type of data set: in vivo, mice (albino females, CFW strain). Particulars: for inhibition at 0.01 mg/kg / inhibition at 0.1 mg/kg / inhibition at 1 mg/kg / inhibition at 10 mg/kg / inhibition at 100 mg/kg: Mus musculus, sc, morphine 8 mg/kg = 100%, read-out: Percent Inhibition of Peristalsis; for inhibition at 0.01 mg/kg: 0.01 mg/kg s.c.; for inhibition at 0.1 mg/kg: 0.1 mg/kg s.c.; for inhibition at 1 mg/kg: 1.0 mg/kg s.c.; for inhibition at 10 mg/kg: 10.0 mg/kg s.c.; for inhibition at 100 mg/kg: 100.0 mg/kg s.c.; for inhibition of peristalsis / constipating side effect: in words, analysis of variance, comparison of compounds. On the procedure:
as §1, §2, §3
Morphine (8 mg/kg), test compound, or saline control was administered subcutaneously (s.c.), at time 0, the charcoal meal was administered by mouth (p.o.) at time 15 min, water (10 ml/kg) was administered s.c. at time 30 min, and the animals were sacrificed at time 45 min. The saline control value represents 0% inhibition and the morphine value represents 100% inhibition. All test compounds had values between saline and morphine, and results are expressed as % inhibition compared to morphine.
The data were subjected to analysis of variance. Also the Scheffe test, a statistical test that allows for multiple comparison, was performed.

The conditions of data set [3]: Gates and Montzka 1964; cited from earlier work.

In the case of `C=CCN1CC[C@]23c4c5ccc(OC)c4O[C@H]2C(=O)CC[C@H]3[C@H]1C5` [7,8-dihydro-N-allylnorcodeinone, 17-allyl-4,5α-epoxy-3-methoxymorphinan-6-one], the analgesic properties result in data set [1] is “weak analgesic properties”.

Turning to `C=CCN1CC[C@]23c4c5ccc(O)c4O[C@H]2C(=O)CC[C@@]3(O)[C@H]1C5` [Naloxone], the “Percent Reversal (S.E.) Of Anti-Peristaltic Effects Of Morphine” value (from here on “Percent Reversal”) was 14.5(±3.0) % in data set [2] (0.01 mg/kg s.c.), 39.1(±4.2) % in data set [2] (0.10 mg/kg s.c.), 69.8(±8.0) % in data set [2] (1.0 mg/kg s.c.) and 100.0(±5.9) % in data set [2] (10.0 mg/kg s.c.).

Turning to `C[C@H]1CC(=O)[C@@H]2Oc3c(O)ccc4c3[C@@]23CCN(CC2CCC2)[C@H](C4)[C@H]13.Cl` [TR-5088, 17-Cyclobutylmethyl-4,5α-epoxy-3-hydroxy-8β-methylmorphinan-6-one Hydrochloride], the ED50 was found to be 1.9 mg/kg in the data set on morphine effect and 0.67 mg/kg in the data set with writhing. In addition, the analgesic activity result in the data set on writhing (in words) was “especially effective analgesics”. Further, the “Percent Reversal” value in data set [2] (0.031 mg/kg s.c.) is 12.4(±5.8) %; in data set [2] (0.31 mg/kg s.c.), 27.7(±7.3) %; in data set [2] (3.1 mg/kg s.c.), 54.6(±6.7) %; in data set [2] (31.0 mg/kg s.c.), 44.7(±6.2) %. Also, in data set [2], the antagonist properties entry is reported as “dramatically increased antagonist properties”. Also, in the data set on Peristalsis, the inhibition at 0.01 mg/kg was 13.5%. Moreover, in the data set with Peristalsis, the inhibition at 0.1 mg/kg was determined as 39.8%. Further, in the data set with Peristalsis, the inhibition at 1 mg/kg amounted to 50.7%. Further, in the data set on Peristalsis, the inhibition at 10 mg/kg was 54%. The inhibition at 100 mg/kg in the data set on Peristalsis was 63.5%. In addition, the “inhibition of peristalsis / constipating side effect” value in the data set on Peristalsis (Hydrochloride) is “inhibit peristalsis to a statistically significantly less degree than TR-5128”; in the data set with Peristalsis (listed as 17-cyclobutylmethyl-4,5α-epoxy-3-hydroxy-8β-methylmorphinan-6-one, Hydrochloride), “less side effects”.

`O=C1CC[C@H]2[C@H]3Cc4ccc(O)c5c4[C@@]2(CCN3CC2CC2)[C@H]1O5` [TR-5118, 17-cyclopropylmethyl-4,5α-epoxy-3-hydroxymorphinan-6-one]: in the data set with morphine effect, the ED50 worked out at 0.19 mg/kg. Moreover, in the data set with writhing, the ED50 was found to be 1.34 mg/kg. In data set [3], the narcotic antagonist activity result is recorded as “had narcotic antagonist activity”. Besides, the “Percent Reversal” value in data set [2] (3.1 mg/kg s.c.) was 56.6(±8.0) %. The “Percent Reversal” value in data set [2] (31.0 mg/kg s.c.) is reported as 69.3(±6.4) %. Moreover, the antagonist properties entry in data set [2] was “mixed agonist side effects and antagonist properties”. Also, in the data set with Peristalsis, the inhibition at 0.01 mg/kg is 24.7%, the inhibition at 0.1 mg/kg is 25.4%, the inhibition at 1 mg/kg stood at 40.8% and the inhibition at 10 mg/kg came to 44.8%. Besides, in the data set with Peristalsis, the inhibition at 100 mg/kg came out at 47.1% and the “inhibition of peristalsis / constipating side effect” value is given as “inhibit peristalsis to a statistically significantly less degree than TR-5128”.

In the case of `O=C1CC[C@H]2[C@H]3Cc4ccc(O)c5c4[C@@]2(CCN3CC2CCC2)[C@H]1O5` [TR-5128, 17-Cyclobutylmethyl-4,5α-epoxy-3-hydroxymorphinan-6-one], the ED50 in the data set on morphine effect is 1.7 mg/kg; in the data set on writhing, 0.07 mg/kg. Moreover, the “Percent Reversal” value in data set [2] (0.01 mg/kg s.c.) was 0.0%; in data set [2] (0.10 mg/kg s.c.) it was 8.3(±4.6) %; in data set [2] (1.0 mg/kg s.c.) it was 13.5(±7.3) %; in data set [2] (10.0 mg/kg s.c.) it was 19.1(±5.8) %; in data set [2] (31.0 mg/kg s.c.) it was 20.4(±5.3) %. Also, in data set [2], the antagonist properties result is given as “so low an antagonist ability as to be ineffective in the practical sense”. In addition, the inhibition at 0.01 mg/kg with Peristalsis is 17.5%. In the data set with Peristalsis, the inhibition at 0.1 mg/kg came to 35.6%. Further, in the data set with Peristalsis, the inhibition at 1 mg/kg came to 50.7%. For the same molecule, the inhibition at 10 mg/kg with Peristalsis was determined as 76.3%. The inhibition at 100 mg/kg in the data set with Peristalsis is 84.2%.

One may read the inhibition as the change of the read-out against control, counted positive when it falls.
